Legend:
Acid Ceramidase (AC) = Acid Ceramidase (AC) (Rattus norvegicus (Rat), UniProt Q6P7S1); experiment: Acid ceramidase inhibition, recombinant rat AC, LC-MS; type: biochemical; conditions: for IC50: read-out: r-AC IC50; for inhibition at 0.3 µM: read-out: r-AC % inhib. @ 0.3 μM
Description: The PCR (High Fidelity PCR Master, Roche) product was subcloned into a pEF6-[…] vector (Invitrogen) to construct a mammalian expression vector encoding […]-tagged rat AC. HEK293 cells were transfected with pEF6-rAC-[…] using Super-Fect reagent (Qiagen) and screened with G418 (0.3 mg/mL). Cells were suspended in 20 mM Tris HCl (pH 7.5) containing 0.32M sucrose, sonicated and centrifuged at 800×g for 15 minutes at 4° C. The supernatants were centrifuged again at 12,000×g for 30 minutes at 4° C. The pellets were suspended in phosphate-buffered saline (PBS) and subjected to 2 freeze-thaw cycles at -80° C. The suspensions were centrifuged at 105,000×g for 1 hour at 4° C. The supernatants containing recombinant AC were kept at -80° C. until use. Protein concentration was measured using the bicinchoninic acid (BCA) assay (Pierce). […] Reactions were stopped by addition of a mixture of chloroform/methanol (2:1, vol/vol) containing 1 nmol of heptadecanoic acid (HDA; NuChek Prep). […] HDA was eluted on an XDB Eclipse C18 column isocratically at 2.2 mL/min for 1 minute with a solvent mixture of 95% methanol and 5% water, both containing 0.25% acetic acid and 5 mM ammonium acetate. The column temperature was 50° C. Electrospray ionization (ESI) was in the negative mode, capillary voltage as 4 kV, and fragmentor voltage was 100 V. N2 was used as drying gas at a flow rate of 13 L/min and a temperature of 350° C. Nebulizer pressure was set at 60 psi. We monitored [M-H]- in the selected-ion monitoring (SIM) mode using HDA as internal standard. Calibration curves were generated using commercial lauric acid (Nu-Chek Prep; m/z=199).

r-NAAA = r-NAAA (Rattus norvegicus (Rat), UniProt Q5KTC7); experiment: r-NAAA inhibition, rat lung lysosomal NAAA preparation, UPLC/MS; type: biochemical; conditions: for inhibition at 3 µM: read-out: r-NAAA % inhib. @ 3 μM
Description: Lysosomal NAAA protein preparation were obtained by homogenizing male Sprague-Dawley rat lungs (Charles River) in 20 mM Tris-HCl buffer pH 7.4 containing 0.32M sucrose. Samples were centrifuged at 800×g for 15 minutes at 4° C. Supernatants were then centrifuged at 12,000 g for 30 minutes at 4° C. Pellets were then resuspended in PBS pH 7.4 and subjected to a freeze/thaw cycle at −80° C. The suspension was finally centrifuged at 105,000×g for 1 hour at 4° C. The supernatant was then used in the enzymatic assay.
NAAA protein preparation was pre-incubated with various concentrations of test compounds or vehicle control in 100 mM NaH2PO4/Citrate buffer, 1% Triton-X, 3 mM DTT (pH 4.5) for 30 minutes at 37° C. Samples were then incubated with heptadecenoylethanolamide (50 μM, Avanti Polar Lipids) at 37° C. for 30 min. The reaction was terminated by addition of cold methanol containing heptadecanoic acid (NuCheck Prep) as internal standard. Samples were then analyzed by UPLC/MS (Acquity, Waters). Heptadecenoic and heptadecanoic acids were eluted on an Acquity UPLC BEH C18 column (50 mm length, 2.1 mm i.d., 1.7 μm pore size, Waters) isocratically at 0.5 mL/min for 1.5 min with a solvent mixture of 95% methanol and 5% water, both containing 0.25% Acetic Acid and 5 mM Ammonium Acetate. The column temperature was 40° C. Electrospray ionization was in the negative mode, capillary voltage was 0.5 kV, cone voltage was […], desolvation temperature was 500° C. N2 was used as drying gas at a flow rate of 1000 L/hour and a temperature of 500° C. The [M−H]^− ion was monitored in the selected-ion monitoring mode (m/z values: heptadecenoic acid 267.37, heptadecanoic acid 269.37). Calibration curves were generated using commercial heptadecenoic acid (NuCheck Prep). Inhibition of NAAA activity was calculated as reduction of heptadecenoic acid in the samples compared to vehicle controls. IC50 values were calculated by non-linear regression analysis of log [concentration]/inhibition curves using GraphPad Prism 5 (GraphPad Software Inc., CA—USA) applying a standard slope curve fitting.

DNFB-induced dermatitis = experiment: DNFB contact dermatitis in mice, ear thickness; type: in vivo, mouse; conditions: mice, PEG 400 solution, each day for 7 days; (S)-OOPP 0.1-10% w/v, compound 6 0.1%
Description: 2,4-dinitrofluorobenzene (DNFB) (Sigma-Aldrich, Italy) was dissolved in acetone. On day 1 and 2, mice (CD1, 25-30 g, Charles River, Calco, Italy) were sensitized on the skin of the abdomen with hapten (20 μL of 0.5% DNFB). After 5 days, on day 7, mice were challenged with hapten (20 μL of 0.2% DNFB) in the earlobe and treated with drugs to be tested. Control group received the vehicle used to dissolve drugs. Mice (five per group) were placed in a plastic cage. On day 8, ear thickness was determined after challenge using a caliper. Results are expressed as absolute ear thickness.
Fresh drug suspensions of compound 6 were prepared immediately before use in a vehicle consisting of petrolatum plus 5% lauric acid and given in a volume of 20 μL/mouse. Mice were treated with different concentrations of compound 6 or vehicle together with DNFB challenge on […].
Compound 6 and the reported β-lactone NAAA inhibitor (S)-OOPP (Solorzano et al., Proceedings of the National Academy of Science USA 2009, 106, 20966-20971; Solorzano et al., Journal of Medicinal Chemistry 2010, 53, 5770-5781) were tested in this model for their contact sensitivity response. Fresh drug solutions of (S)-OOPP and compound 6 were prepared immediately before use in polyethylene glycol 400 (PEG 400) and given in a volume of 20 μL/ear. Mice were treated with different concentrations of (S)-OOPP, 0.1% compound 6 or vehicle each day for 7 days. Ear thickness was determined on day 0 and every day before challenge using a caliper. Results are expressed as absolute ear thickness.
The methods included the following. Dermatitis was produced in mice using 2-4 dinitrofluorobenzene (DNFB) as described by Buckley and Nijkamp (1994), Am J Respir Grit Care Med 149:400-7. Mice were sensitized on two consecutive days with a 0.5% DNFB solution applied to the shaved abdomen. At day 8, the ears were challenged with a 0.2% DNFB solution. Ear thickness was determined by using a micrometer. Scratching was evaluated as number of episodes per 60 minutes period. Data were analysed by ANOVA followed by the Bonferroni's test. See also Hargreaves K, et al (1988), Pain 32: 77-88 for related information.

Acid Ceramidase (AC), sequence (Q6P7S1 21-394): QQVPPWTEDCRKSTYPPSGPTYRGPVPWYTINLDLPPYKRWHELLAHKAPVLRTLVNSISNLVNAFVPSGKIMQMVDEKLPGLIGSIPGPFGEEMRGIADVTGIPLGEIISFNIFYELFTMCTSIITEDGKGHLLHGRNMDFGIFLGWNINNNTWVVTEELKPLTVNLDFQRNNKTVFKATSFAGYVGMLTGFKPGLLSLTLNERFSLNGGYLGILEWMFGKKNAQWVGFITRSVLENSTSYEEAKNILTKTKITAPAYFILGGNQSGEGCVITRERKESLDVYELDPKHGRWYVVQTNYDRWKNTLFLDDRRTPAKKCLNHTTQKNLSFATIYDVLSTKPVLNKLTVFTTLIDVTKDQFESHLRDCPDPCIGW
r-NAAA, sequence (Q5KTC7 34-362): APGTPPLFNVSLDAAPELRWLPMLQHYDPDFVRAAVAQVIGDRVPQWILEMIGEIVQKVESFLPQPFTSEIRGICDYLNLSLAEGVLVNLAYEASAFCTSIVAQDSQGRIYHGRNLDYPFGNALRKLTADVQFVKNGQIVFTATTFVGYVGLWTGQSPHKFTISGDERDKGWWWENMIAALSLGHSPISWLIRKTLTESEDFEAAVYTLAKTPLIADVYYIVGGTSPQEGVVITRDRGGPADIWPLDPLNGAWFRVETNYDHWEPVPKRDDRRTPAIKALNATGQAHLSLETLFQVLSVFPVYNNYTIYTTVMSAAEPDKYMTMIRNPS

SMILES	IC50 (r-NAAA)	further results
CCCCCCCCOC(=O)N[C@H]1C(=O)O[C@H]1C [Example 2, Octyl-[(2S,3R)-2-methyl-4-oxooxetan-3-yl]-carbamate]	30 nM	inhibition at 0.3 µM (Acid Ceramidase (AC)): < 10%
C[C@@H]1OC(=O)[C@@H]1NC(=O)OC1(C)CCCC1 [Example 23, (1-Methylcyclopentyl) N-[(2S,3R)-2-methyl-4-oxo-oxetan-3-yl]-carbamate]	1230 nM	
CCCCC1(OC(=O)N[C@H]2C(=O)O[C@H]2C)COC1 [Example 24, (3-butyloxetan-3-yl)-N-[(2S,3R)-2-methyl-4-oxo-oxetan-3-yl]-carbamate]	3760 nM	
C[C@@H]1OC(=O)[C@@H]1NC(=O)OC1CCN(C(=O)c2ccccc2)CC1 [Example 9, (1-benzoyl-4-piperidyl)-N-[(2S,3R)-2-methyl-4-oxo-oxetan-3-yl]-carbamate]	1310 nM	
CC[C@@H]1OC(=O)[C@@H]1NC(=O)OCc1ccc(-c2ccccc2)cc1 (relative stereo) [Example 50, (4-Phenylphenyl)-methyl-N-[(2S*,3R*)-2-ethyl-4-oxo-oxetan-3-yl]-carbamate]		inhibition at 3 µM (r-NAAA): 100%
C[C@@H]1OC(=O)[C@@H]1NC(=O)OCCCCc1ccccc1 [Example 5, 4-phenylbutyl-[(2S,3R)-2-methyl-4-oxooxetan-3-yl]-carbamate]	390 nM	inhibition at 0.3 µM (Acid Ceramidase (AC)): < 10%
CCC1OC(=O)C1NC(=O)OC(C)(C)C (stereo not drawn) [Example 13, tert-Butyl-N-[(2S*,3R*)-2-ethyl-4-oxo-oxetan-3-yl]-carbamate and tert-Butyl-N-[(2S*,3S*)-2-ethyl-4-oxo-oxetan-3-yl]-carbamate]		inhibition at 3 µM (r-NAAA): 48%
C[C@@H]1OC(=O)[C@@H]1NC(=O)OCCCc1ccccc1 [Example 4, 3-phenylpropyl-[(2S,3R)-2-methyl-4-oxooxetan-3-yl]-carbamate]	84 nM	
CCCCCOC(=O)N[C@H]1C(=O)O[C@H]1C [Example 1, Pentyl-[(2S,3R)-2-methyl-4-oxooxetan-3-yl]-carbamate]	670 nM	
CC(C)(C)[C@H]1OC(=O)[C@@H]1NC(=O)OCc1ccc(-c2ccccc2)cc1 (relative stereo) [Example 57, (4-Phenyl-phenyl)-methyl-N-[(2R*,3R*)-2-tert-butyl-4-oxo-oxetan-3-yl]-carbamate]		inhibition at 3 µM (r-NAAA): 73%
CC(C)[C@@H]1OC(=O)[C@@H]1NC(=O)OCCCCCc1ccccc1 (relative stereo) [Example 53, 5-Phenylpentyl-N-[(2S*,3R*)-2-isopropyl-4-oxo-oxetan-3-yl]-carbamate]		inhibition at 3 µM (r-NAAA): 55%
O=C(CCc1ccccc1)N[C@H]1COC1=O [(S)-OOPP, N-[(3S)-2-oxo-3-oxetanyl]-3-phenylpropanamide, reference compound]		Contact sensitivity response (ear swelling) (DNFB-induced dermatitis): did not inhibit contact sensitivity response
C[C@@H]1OC(=O)[C@@H]1NC(=O)OCCCCCCCc1ccccc1 [Example 16, 7-Phenylheptyl-N-[(2S,3R)-2-methyl-4-oxo-oxetan-3-yl]-carbamate]	110 nM	

Further lines, with some results ahead:

IC50 (r-NAAA)	SMILES	further results
480 nM	C[C@@H]1OC(=O)[C@H]1NC(=O)OCCCCCc1ccccc1 [Example 32, 5-Phenylpentyl-N-[(2S,3S)-2-methyl-4-oxo-oxetan-3-yl]-carbamate]	IC50 (Acid Ceramidase (AC)): 3800 nM
510 nM	O=C(N[C@@H]1COC1=O)OCCCCCc1ccccc1 [reference compound]	IC50 (Acid Ceramidase (AC)): 30000 ± 2500 nM
310 nM	C[C@@H]1OC(=O)[C@@H]1NC(=O)OC(C)(C)CCCCc1ccccc1 [Example 25, (1,1-Dimethyl-5-phenyl-pentyl)-N-[(2S,3R)-2-methyl-4-oxo-oxetan-3-yl]-carbamate]	inhibition at 0.3 µM (Acid Ceramidase (AC)): < 10%
2520 nM	C[C@@H]1OC(=O)[C@@H]1NC(=O)OCCc1ccccc1 [Example 33, Phenethyl-N-[(2S,3R)-2-methyl-4-oxo-oxetan-3-yl]-carbamate]	
750 nM	C[C@@H]1OC(=O)[C@@H]1NC(=O)OC1CCC(=Cc2ccccc2)CC1 (stereo partly drawn) [Example 31, (R,Z) and (S,E)-(4-Benzylidenecyclohexyl)-N-[(2S,3R)-2-methyl-4-oxooxetan-3-yl]-carbamate]	
140 nM	C[C@@H]1OC(=O)[C@@H]1NC(=O)OCCOCCc1ccccc1 [Example 36, 2-Phenethyloxyethyl-N-[(2S,3R)-2-methyl-4-oxo-oxetan-3-yl]-carbamate]	
18 nM	C[C@H]1OC(=O)[C@@H]1NC(=O)OCCCCCc1ccccc1 [Example 38, 5-Phenylpentyl-N-[(2R,3R)-2-methyl-4-oxo-oxetan-3-yl]-carbamate]	
3530 nM	C[C@H]1OC(=O)[C@H]1NC(=O)OCCCCCc1ccccc1 [Example 37, 5-Phenylpentyl-N-[(2R,3S)-2-methyl-4-oxo-oxetan-3-yl]-carbamate]	
6850 nM	O=C(N[C@H]1COC1=O)OCCCCCc1ccccc1 [drawing 83, reference compound]	IC50 (Acid Ceramidase (AC)): 1530 nM
